# Literature values in PubChem BioAssay AID1259409 (Chemical Carcinogenesis Research Information System (CCRIS), 2018).
# Values joined by “and” are separate entries in the source; they are usually repeats but may differ in a detail not shown here. Equal values may be shown once.
# Test system: rodent chemically induced tumor inhibition, incidence and multiplicity
# Assay: CCRIS tumor inhibitor studies
# Conditions: Dose [Inhibitor]: 0, Species: RAT
Compound,"tumour outcome (control, treated, inhibition, significance) (Carcinogen: 7,12-DIEMTHYLBENZ[A]ANTHRACENE, 57-97-6, 200 UG/D IN ETHANOL/DRINKING WATER SOLUTION (1:500 ML) ADMINISTERED TO PINEALECTOMIZED RATS BEGINNING 1 WK POST CARCI, Route [Inhibitor]: ORAL, Strain/Sex: SPRAGUE-DAWLEY/FEMALE, Target Tissue: Type of Lesion: MAMMARY GLAND: TUMOR, Dose [Carcinogen]: 10 MG/ML SESAME OIL ADMINISTERED ONCE AT 55 D OF AGE, Promoter: NONE USED)","tumour outcome (control, treated, inhibition, significance) (Carcinogen: 7,12-DIMETHYLBENZ[A]ANTHRACENE, 57-97-6, 200 UG/D ETHANOL/DRINKING WATER SOLUTION (1:500 ML) ADMINISTERED TO INTACT RATS BEGINNING 1 WK POST CARCINOGEN DOSE A, Route [Inhibitor]: ORAL, Strain/Sex: SPRAGUE-DAWLEY/FEMALE, Target Tissue: Type of Lesion: MAMMARY GLAND: TUMOR, Dose [Carcinogen]: 10 MG/ML SESAME OIL ADMINISTERED ONCE AT 55 D OF AGE, Promoter: NONE USED)","tumour outcome (control, treated, inhibition, significance) (Carcinogen: 7,12-DIMETHYLBENZ[A]ANTHRACENE, 57-97-6, 200 UG/D IN ETHANOL/DRINKING WATER SOLUTION (1:500 ML) ADMINISTERED TO INTACT RATS BEGINNING 1 WK POST CARCINOGEN DOS, Route [Inhibitor]: ORAL, Strain/Sex: SPRAGUE-DAWLEY/FEMALE, Target Tissue: Type of Lesion: MAMMARY GLAND: TUMOR, Dose [Carcinogen]: 10 MG/ML SESAME OIL ADMINISTERED ONCE AT 55 D OF AGE, Promoter: NONE USED)","tumour outcome (control, treated, inhibition, significance) (Carcinogen: 7,12-DIMETHYLBENZ[A]ANTHRACENE, 57-97-6, 200 UG/D IN ETHANOL/DRINKING WATER SOLUTION (1:500 ML) ADMINISTERED TO INTACT RATS BEGINNING 1 WK PRIOR TO CARCINOGEN, Route [Inhibitor]: ORAL, Strain/Sex: SPRAGUE-DAWLEY/FEMALE, Target Tissue: Type of Lesion: MAMMARY GLAND: TUMOR, Dose [Carcinogen]: 10 MG/ML SESAME OIL ADMINISTERED ONCE AT 55 D OF AGE, Promoter: NONE USED)","tumour outcome (control, treated, inhibition, significance) (Carcinogen: 7,12-DIMETHYLBENZ[A]ANTHRACENE, 57-97-6, 200 UG/D IN ETHANOL/DRINKING WATER SOLUTION (1:500 ML) ADMINISTERED TO PINEALECTOMIZED RATS BEGINNING 1 WK POST CARCI, Route [Inhibitor]: ORAL, Strain/Sex: SPRAGUE-DAWLEY/FEMALE, Target Tissue: Type of Lesion: MAMMARY GLAND: TUMOR, Dose [Carcinogen]: 10 MG/ML SESAME OIL ADMINISTERED ONCE AT 55 D OF AGE, Promoter: NONE USED)","tumour outcome (control, treated, inhibition, significance) (Carcinogen: 7,12-DIMETHYLBENZ[A]ANTHRACENE, 57-97-6, 200 UG/D IN ETHANOL/DRINKING WATER SOLUTION (1:500 ML) ADMINISTERED TO PINEALECTOMIZED RATS BEGINNING 1 WK PRIOR TO C, Route [Inhibitor]: ORAL, Strain/Sex: SPRAGUE-DAWLEY/FEMALE, Target Tissue: Type of Lesion: MAMMARY GLAND: TUMOR, Dose [Carcinogen]: 10 MG/ML SESAME OIL ADMINISTERED ONCE AT 55 D OF AGE, Promoter: NONE USED)","tumour outcome (control, treated, inhibition, significance) (Carcinogen: 7,12-DIMETHYLBENZ[A]ANTHRACENE, 57-97-6, 200 UG/D IN ETHANOL/DRINKING WATER SOLUTION. (1:500 ML) ADMINISTERED TO PINEALECTOMIZED RATS BEGINNING 1 WK PRIOR TO, Route [Inhibitor]: ORAL, Strain/Sex: SPRAGUE-DAWLEY/FEMALE, Target Tissue: Type of Lesion: MAMMARY GLAND: TUMOR, Dose [Carcinogen]: 10 MG/ML SESAME OIL ADMINISTERED ONCE AT 55 D OF AGE, Promoter: NONE USED)","tumour outcome (control, treated, inhibition, significance) (Carcinogen: DIETHYLNITROSAMINE, 55-18-5, 100 MG/KG INJECTED 4, 24, AND 48 HR AFTER EACH CARCINOGEN EXPOSURE (STUDY DURATION: 6 MO), Route [Inhibitor]: INTRAPERITONEAL, Strain/Sex: BD6/MALE, Target Tissue: Type of Lesion: ESOPHAGUS: TUMOR, Dose [Carcinogen]: 80 MG/KG 1 WK FOR 7 WK)","tumour outcome (control, treated, inhibition, significance) (Carcinogen: DIETHYLNITROSAMINE, 55-18-5, 100 MG/KG INJECTED 4, 24, AND 48 HR AFTER EACH CARCINOGEN EXPOSURE (STUDY DURATION: 6 MO), Route [Inhibitor]: INTRAPERITONEAL, Strain/Sex: BD6/MALE, Target Tissue: Type of Lesion: LIVER: TUMOR, Dose [Carcinogen]: 80 MG/KG 1/WK FOR 7 WK)"
CN1C(=O)NC(c2ccccc2)(c2ccccc2)C1=O,"80%, 36%, 55%, p<0.05","88%, 24%, 73%, p<0.005","70%, 16%, 77%, p<0.005","70%, 27%, 61%, p<0.05 and 88%, 38%, 57%, p<0.05","90%, 31%, 66%, p<0.005","90%, 64%, 29%, not calculated","80%, 65%, 19%, not calculated",–,–
O=c1[nH]c(=O)n([C@H]2C[C@H](O)[C@@H](CO)O2)cc1Br,–,–,–,–,–,–,–,"10/40 (25%), 11/35 (31%), -24%, not calculated","29/40 (73%), 20/35 (57%), 22%, not calculated"
